Experiments:
Type in all cases: in vivo
[1] = system: foxtail, giant (giant foxtail, Setaria faberii); assay: Test A postemergence, visual plant response rating; details: for Foxtail, Giant plant response rating (0 to 100 scale): 500 g ai/ha, postemergence, 0 is no effect, 100 is complete control; for Foxtail, Giant plant response rating: Postemergence, 125 g ai/ha, 0 to 100 scale (0 no effect, 100 complete control)
How it was run: (§1)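 Preemergence: seeds in loam/sand blend given directed soil spray of compound in non-phytotoxic solvent with surfactant. Postemergence: plants 2–10 cm, one- to two-leaf stage, sprayed with same formulation. Visual injury rated vs untreated controls after ~10 days in greenhouse, 0 (no effect) to 100 (complete control).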

[2] = system: ragweed (common ragweed, Ambrosia elatior); assay: Test A postemergence, visual plant response rating; details: for Ragweed plant response rating (0 to 100 scale): 500 g ai/ha, postemergence, 0 is no effect, 100 is complete control; for Ragweed plant response rating: Postemergence, 125 g ai/ha, 0 to 100 scale (0 no effect, 100 complete control)
How it was run: as §1

[3] = system: galium (catchweed bedstraw, Galium aparine); assay: Test A postemergence, visual plant response rating; details: for Galium plant response rating (0 to 100 scale): 500 g ai/ha, postemergence, 0 is no effect, 100 is complete control; for Galium plant response rating: Postemergence, 125 g ai/ha, 0 to 100 scale (0 no effect, 100 complete control)
How it was run: as §1

kochia (Kochia scoparia) [4] = assay: Test A postemergence, visual plant response rating; details: for Kochia plant response rating (0 to 100 scale): 500 g ai/ha, postemergence, 0 is no effect, 100 is complete control; for Kochia plant response rating: Postemergence, 125 g ai/ha, 0 to 100 scale (0 no effect, 100 complete control)
How it was run: as §1

[5] = system: Italian ryegrass (Lolium multiflorum); assay: Test A postemergence, visual plant response rating; details: for Ryegrass, Italian plant response rating (0 to 100 scale): 500 g ai/ha, postemergence, 0 is no effect, 100 is complete control; for Ryegrass, Italian plant response rating: Postemergence, 125 g ai/ha, 0 to 100 scale (0 no effect, 100 complete control)
How it was run: as §1

[6] = system: pigweed (Amaranthus retroflexus); assay: Test A postemergence, visual plant response rating; details: for Pigweed plant response rating (0 to 100 scale): 500 g ai/ha, postemergence, 0 is no effect, 100 is complete control; for Pigweed plant response rating: Postemergence, 125 g ai/ha, 0 to 100 scale (0 no effect, 100 complete control)
How it was run: as §1

[7] = system: barnyardgrass (Echinochloa crus-galli); assay: Test A postemergence, visual plant response rating; details: for Barnyardgrass plant response rating (0 to 100 scale): 500 g ai/ha, postemergence, 0 is no effect, 100 is complete control; for Barnyardgrass plant response rating: Postemergence, 125 g ai/ha, 0 to 100 scale (0 no effect, 100 complete control)
How it was run: as §1

[8] = system: blackgrass (Alopecurus myosuroides); assay: Test A postemergence, visual plant response rating; details: for Blackgrass plant response rating (0 to 100 scale): 500 g ai/ha, postemergence, 0 is no effect, 100 is complete control; for Blackgrass plant response rating: Postemergence, 125 g ai/ha, 0 to 100 scale (0 no effect, 100 complete control)
How it was run: as §1

corn (Zea mays) = assay: Test A postemergence, visual plant response rating; details: for Corn plant response rating (0 to 100 scale): 500 g ai/ha, postemergence, 0 is no effect, 100 is complete control; for Corn plant response rating: Postemergence, 125 g ai/ha, 0 to 100 scale (0 no effect, 100 complete control)
How it was run: as §1

[9] = system: wheat (Triticum aestivum); assay: Test A postemergence, visual plant response rating; details: for Wheat plant response rating (0 to 100 scale): 500 g ai/ha, postemergence, 0 is no effect, 100 is complete control; for Wheat plant response rating: Postemergence, 125 g ai/ha, 0 to 100 scale (0 no effect, 100 complete control)
How it was run: as §1

[10] = system: foxtail, giant (giant foxtail, Setaria faberii); assay: Test A preemergence, visual plant response rating; details: for Foxtail, Giant plant response rating: 125 g ai/ha, preemergence, 0 to 100 scale, 0 no effect, 100 complete control; for Foxtail, Giant plant response rating (0 to 100 scale): 500 g ai/ha Preemergence, approx. 10 days
How it was run: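 Greenhouse pot test in loam–sand soil mix: compound in a surfactant-containing non-phytotoxic solvent applied preemergence (directed soil spray) or postemergence (one- to two-leaf plants, 2–10 cm). Injury scored visually after ~10 days, 0–100.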

[11] = system: ragweed (common ragweed, Ambrosia elatior); assay: Test A preemergence, visual plant response rating; details: for Ragweed plant response rating: 125 g ai/ha, preemergence, 0 to 100 scale, 0 no effect, 100 complete control; for Ragweed plant response rating (0 to 100 scale): 500 g ai/ha Preemergence, approx. 10 days
How it was run: as §1

kochia (Kochia scoparia) [12] = assay: Test A preemergence, visual plant response rating; details: for Kochia plant response rating: 125 g ai/ha, preemergence, 0 to 100 scale, 0 no effect, 100 complete control; for Kochia plant response rating (0 to 100 scale): 500 g ai/ha Preemergence, approx. 10 days
How it was run: as §1

[13] = system: Italian ryegrass (Lolium multiflorum); assay: Test A preemergence, visual plant response rating; details: for Ryegrass, Italian plant response rating: 125 g ai/ha, preemergence, 0 to 100 scale, 0 no effect, 100 complete control; for Ryegrass, Italian plant response rating (0 to 100 scale): 500 g ai/ha Preemergence, approx. 10 days
How it was run: as §1

[14] = system: pigweed (Amaranthus retroflexus); assay: Test A preemergence, visual plant response rating; details: for Pigweed plant response rating: 125 g ai/ha, preemergence, 0 to 100 scale, 0 no effect, 100 complete control; for Pigweed plant response rating (0 to 100 scale): 500 g ai/ha Preemergence, approx. 10 days
How it was run: as §1

[15] = system: barnyardgrass (Echinochloa crus-galli); assay: Test A preemergence, visual plant response rating; details: for Barnyardgrass plant response rating: 125 g ai/ha, preemergence, 0 to 100 scale, 0 no effect, 100 complete control; for Barnyardgrass plant response rating (0 to 100 scale): 500 g ai/ha Preemergence, approx. 10 days
How it was run: as §1

[16] = system: sedge, umbrella (small-flower umbrella sedge, Cyperus difformis); assay: Test B flooded paddy test, visual plant response rating; details: 250 g ai/ha, Flood, applied to paddy water, 2-leaf stage, evaluated after 13 to 15 days
How it was run: (§2)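 Flooded-pot treatment: water 3 cm over the soil, chemical delivered into that water, depth unchanged for the duration. Assessed by eye versus controls following 13–15 greenhouse days; plants were at 2 leaves when dosed.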

[17] = system: ducksalad (Heteranhera limosa); assay: as above; details: 250 g ai/ha, Flood, applied to paddy water, 2-leaf stage, evaluated after 13 to 15 days
How it was run: as §2

rice (Oryza sativa) = assay: as above; details: 250 g ai/ha, Flood, applied to paddy water, 2-leaf stage, evaluated after 13 to 15 days
How it was run: as §2

[18] = system: barnyardgrass (Echinochloa crus-galli); assay: as above; details: 250 g ai/ha, Flood, applied to paddy water, 2-leaf stage, evaluated after 13 to 15 days
How it was run: as §2

CON=C(c1cccc(C#N)c1)c1c(O)c(C)nn(C)c1=O [Compound 57]
Foxtail, Giant plant response rating (0 to 100 scale) [1]: 0
Foxtail, Giant plant response rating [1]: 0
Ragweed plant response rating (0 to 100 scale) [2]: 10
Ragweed plant response rating [2]: 0
Galium plant response rating (0 to 100 scale) [3]: 50
Galium plant response rating [3]: 10
Kochia plant response rating (0 to 100 scale) (kochia (Kochia scoparia) [4]): 50
Kochia plant response rating (kochia (Kochia scoparia) [4]): 0
Ryegrass, Italian plant response rating (0 to 100 scale) [5]: 20
Ryegrass, Italian plant response rating [5]: 10
Pigweed plant response rating (0 to 100 scale) [6]: 30
Pigweed plant response rating [6]: 30
Barnyardgrass plant response rating (0 to 100 scale) [7]: 0
Barnyardgrass plant response rating [7]: 0
Blackgrass plant response rating (0 to 100 scale) [8]: 0
Blackgrass plant response rating [8]: 0
Corn plant response rating (0 to 100 scale) (corn (Zea mays)): 0
Corn plant response rating (corn (Zea mays)): 20
Wheat plant response rating (0 to 100 scale) [9]: 10
Wheat plant response rating [9]: 0
Foxtail, Giant plant response rating [10]: 0
Foxtail, Giant plant response rating (0 to 100 scale) [10]: 30
Ragweed plant response rating [11]: 0
Ragweed plant response rating (0 to 100 scale) [11]: 0
Kochia plant response rating (kochia (Kochia scoparia) [12]): 0
Kochia plant response rating (0 to 100 scale) (kochia (Kochia scoparia) [12]): 10
Ryegrass, Italian plant response rating [13]: 0
Ryegrass, Italian plant response rating (0 to 100 scale) [13]: 0
Pigweed plant response rating [14]: 0
Pigweed plant response rating (0 to 100 scale) [14]: 0
Barnyardgrass plant response rating [15]: 0
Barnyardgrass plant response rating (0 to 100 scale) [15]: 0
Plant response rating, Sedge, Umbrella (0 to 100 scale, 0 is no effect, 100 is complete control) [16]: 0
Plant response rating, Ducksalad (0 to 100 scale, 0 is no effect, 100 is complete control) [17]: 0
Plant response rating, Rice (0 to 100 scale, 0 is no effect, 100 is complete control) (rice (Oryza sativa)): 15
Plant response rating, Barnyardgrass (0 to 100 scale, 0 is no effect, 100 is complete control) [18]: 15

CON=C(c1cc(C)cs1)c1c(O)c(C)nn(C)c1=O (mixture of isomers) [Compound 133]
Foxtail, Giant plant response rating (0 to 100 scale) [1]: 10
Foxtail, Giant plant response rating [1]: 0
Ragweed plant response rating (0 to 100 scale) [2]: 30
Ragweed plant response rating [2]: 10
Galium plant response rating (0 to 100 scale) [3]: 60
Galium plant response rating [3]: 20
Kochia plant response rating (0 to 100 scale) (kochia (Kochia scoparia) [4]): 60
Kochia plant response rating (kochia (Kochia scoparia) [4]): 20
Ryegrass, Italian plant response rating (0 to 100 scale) [5]: 0
Ryegrass, Italian plant response rating [5]: 0
Pigweed plant response rating (0 to 100 scale) [6]: 80
Pigweed plant response rating [6]: 50
Barnyardgrass plant response rating (0 to 100 scale) [7]: 0
Barnyardgrass plant response rating [7]: 0
Blackgrass plant response rating (0 to 100 scale) [8]: 0
Blackgrass plant response rating [8]: 0
Corn plant response rating (0 to 100 scale) (corn (Zea mays)): 0
Corn plant response rating (corn (Zea mays)): 0
Wheat plant response rating (0 to 100 scale) [9]: 0
Wheat plant response rating [9]: 0
Foxtail, Giant plant response rating [10]: 0
Foxtail, Giant plant response rating (0 to 100 scale) [10]: 0
Ragweed plant response rating [11]: 0
Ragweed plant response rating (0 to 100 scale) [11]: 40
Kochia plant response rating (kochia (Kochia scoparia) [12]): 0
Kochia plant response rating (0 to 100 scale) (kochia (Kochia scoparia) [12]): 20
Ryegrass, Italian plant response rating [13]: 0
Ryegrass, Italian plant response rating (0 to 100 scale) [13]: 0
Pigweed plant response rating [14]: 0
Pigweed plant response rating (0 to 100 scale) [14]: 0
Barnyardgrass plant response rating [15]: 0
Barnyardgrass plant response rating (0 to 100 scale) [15]: 0
Plant response rating, Sedge, Umbrella (0 to 100 scale, 0 is no effect, 100 is complete control) [16]: 0
Plant response rating, Ducksalad (0 to 100 scale, 0 is no effect, 100 is complete control) [17]: 0
Plant response rating, Rice (0 to 100 scale, 0 is no effect, 100 is complete control) (rice (Oryza sativa)): 0
Plant response rating, Barnyardgrass (0 to 100 scale, 0 is no effect, 100 is complete control) [18]: 0
